Experimental data: US7883889B2, “Antigen presenting cells, method for their preparation and their use for cancer vaccines” (priority 2001, dated 2011)

How the values were obtained:
[1] = test system: B-EBV+ lymphoblastoid cell lines; test: RT-PCR analysis of CTA expressed by ADHAPI-Cells/B-EBV and control B-EBV cells; type: cell-based, human; settings: 5-AZA-CdR: four pulses of 1 μM every 12 h, then 48 h culture (= ADHAPI-Cells/B-EBV)
Method: B-EBV+ lymphoblastoid cell lines (7.5×10^5 cells/ml) were cultured in RPMI 1640 medium supplemented with 10% heat-inactivated foetal calf serum (or 10% heat-inactivated human AB serum) and 2 mM L-glutamine at 37° C. in a 5% CO2 humidified atmosphere, and pulsed four times with 1 μM 5-aza-2′-deoxycytidine (5-AZA-CdR) every 12 h; then, half of the culture medium was replaced with fresh medium and cultures were allowed to proceed for additional 48 h. Then cells were utilized for experimental procedures and/or frozen under viable conditions. Control cells (B-EBV cells) were cultured under similar experimental conditions but without pulses of 5-AZA-CdR.
Experimental conditions and primers utilized to assess CTA expression on investigated cells were as follows: […]

PWM-activated PBMC = test: RT-PCR analysis of CTA expressed by ADHAPI-Cells/PWM-PBMC and control PWM-PBMC cells; type: cell-based, human; settings: 5-AZA-CdR: four pulses of 1 μM every 12 h, then 48 h culture (= ADHAPI-Cells/PWM-PBMC)
Method: (§1) Experimental conditions and primers utilized to assess CTA expression on investigated cells were as follows:
PBMC (1.5×10^6 cells/ml) were added with PWM (3 μg/ml) and cultured for 48 h at 37° C. in a 5% CO2 humidified atmosphere in Basal Iscove's medium supplemented with 10% heat-inactivated human AB serum, 2 mM L-glutamine, 100 U/ml penicillin, 100 μg/ml streptomycin sulphate.
PWM-activated PBMC were pulsed four times with 1 μM 5-aza-2′-deoxycytidine (5-AZA-CdR) every 12 h; then, half of the culture medium was replaced with fresh medium and cultures were allowed to proceed for additional 48 h. Then cells were utilized for experimental procedures and/or frozen under viable conditions. Control cells (PWM-PBMC) were cultured under similar experimental conditions but without pulses of 5-AZA-CdR.

PHA-activated PBMC = test: RT-PCR analysis of CTA expressed by ADHAPI-Cells/PHA-PBMC and control PHA-PBMC; type: cell-based, human; settings: 5-AZA-CdR: four pulses of 1 μM every 12 h, then 48 h culture (= ADHAPI-Cells/PHA-PBMC)
Method: as §1
PBMC (1.5×10^6 cells/ml) were added with PHA-M (10 μg/ml) and 100 UI/ml rhIL-2, and cultured for 48 h at 37° C. in a 5% CO2 humidified atmosphere in RPMI 1640 medium supplemented with 10% heat-inactivated foetal calf serum (or in Basal Iscove's medium supplemented with 10% heat-inactivated human AB serum), 2 mM L-glutamine, 100 U/ml penicillin, 100 μg/ml streptomycin sulphate (complete medium).
PHA-activated PBMC were pulsed four times with 1 μM 5-aza-2′-deoxycytidine (5-AZA-CdR) every 12 h; then, half of the culture medium was replaced with fresh complete medium without PHA-M and cultures were allowed to proceed for additional 48 h. Then cells were utilized for experimental procedures and/or frozen under viable conditions. Control cells (PHA-PBMC) were cultured under similar experimental conditions but without pulses of 5-AZA-CdR.

[2] = test system: PWM-activated B-Lymphocytes; test: RT-PCR analysis of CTA expressed by ADHAPI-Cells/PWM-B and control PWM-B cells; type: cell-based, human; settings: 5-AZA-CdR: four pulses of 1 μM every 12 h, then 48 h culture (= ADHAPI-Cells/PWM-B)
Method: as §1
Purified B-Lymphocytes (1.5×10^6 cells/ml) were added with PWM (3 μg/ml) and cultured for 48 h at 37° C. in a 5% CO2 humidified atmosphere in Basal Iscove's medium supplemented with 10% heat-inactivated human AB serum, 2 mM L-glutamine, 100 U/ml penicillin, 100 μg/ml streptomycin sulphate.
PWM-activated B-Lymphocytes were pulsed four times with 1 μM 5-aza-2′-deoxycytidine (5-AZA-CdR) every 12 h; then, half of the culture medium was replaced with fresh medium and cultures were allowed to proceed for additional 48 h. Then cells were utilized for experimental procedures and/or frozen under viable conditions. Control cells (PWM-B) were cultured under similar experimental conditions but without pulses of 5-AZA-CdR.

PHA+PWM-activated PBMC = test: RT-PCR analysis of CTA expressed by ADHAPI-Cells/PHA+PWM-PBMC and control PHA+PWM-PBMC; type: cell-based, human; settings: 5-AZA-CdR: four pulses of 1 μM every 12 h, then 48 h culture (= ADHAPI-Cells/PHA+PWM-PBMC)
Method: as §1
PBMC (1.5×10^6 cells/ml) were added with PHA-M (10 μg/ml), PWM (3 μg/ml), 100 UI/ml rhIL-2 and cultured for 48 h at 37° C. in a 5% CO2 humidified atmosphere in Basal Iscove's medium supplemented with 10% heat-inactivated human AB serum (or with 10% heat-inactivated autologous serum), 2 mM L-glutamine, 100 U/ml penicillin, 100 μg/ml streptomycin sulphate (complete medium).
PHA+PWM-activated PBMC were pulsed four times with 1 μM 5-aza-2′-deoxycytidine (5-AZA-CdR) every 12 h; then, half of the culture medium was replaced with fresh complete medium without PHA or PWM and cultures were allowed to proceed for additional 48 h. Then cells were utilized for experimental procedures and/or frozen under viable conditions. Control cells (PHA+PWM-PBMC) were cultured under similar experimental conditions but without pulses of 5-AZA-CdR.

[3] = test system: normal and malignant lymphoid cells; settings: Shichijo S. et al Jpn. J. Cancer Res. 87, 751-756, 1996; cited from earlier work
[4] = test system: NIH3T3-CD40L-activated PBMC; test: RT-PCR analysis of CTA expressed by ADHAPI-Cells/CD40L-B and control CD40L-B cells; type: cell-based, human; settings: 5-AZA-CdR: four pulses of 1 μM every 12 h, restimulation with NIH3T3-CD40L, then 48 h (= ADHAPI-Cells/CD40L-B)
Method: as §1
PBMC (2×10^6 cells/ml) were co-cultured with semiconfluent, x-ray treated (75 Gy) NIH3T3-CD40L at 37° C. in a 5% CO2 humidified atmosphere, in Basal Iscove's medium supplemented with 10% heat-inactivated human AB serum, 2 mM L-glutamine, 2 ng/ml recombinant human (rh) interleukin 4 (rhIL-4), 50 μg/ml human transferrin, 5 μg/ml rh insulin, 5.5×10^−7 M cyclosporin A (CsA), 100 U/ml penicillin, and 100 μg/ml streptomycin sulphate (complete medium). After six days of incubation, PBMC were collected, washed twice with HBSS, resuspended at 1×10^6 cells/ml in complete medium and co-cultured for additional 3 days at 37° C. in a 5% CO2 humidified atmosphere with NIH3T3-CD40L freshly prepared as described above. This procedure was repeated every 2-3 days to a maximum culture time of 16-18 days.
After 16-18 days of culture, activated PBMC were harvested and restimulated with NIH3T3-CD40L as described above; after an O/N incubation at 37° C. in a 5% CO2 humidified atmosphere, cultures were pulsed four times with 1 μM 5-aza-2′-deoxycytidine (5-AZA-CdR) every 12 h; then, cells were harvested and restimulated with NIH3T3-CD40L as described above and cultures were allowed to proceed for additional 48 h. Then cells were utilized for experimental procedures and/or frozen under viable conditions. Control cells (CD40L-B cells) were cultured under similar experimental conditions but without pulses of 5-AZA-CdR.

Nc1ncn([C@H]2C[C@H](O)[C@@H](CO)O2)c(=O)n1 [5-AZA-CdR, 5-aza-2′-deoxycytidine]
GAGE-1-6 expression (RT-PCR) [1]: 4/4
MAGE-1 expression (RT-PCR) [1]: 4/4
MAGE-3 expression (RT-PCR) [1]: 4/4
NY-ESO-1 expression (RT-PCR) [1]: 4/4
SSX-2 expression (RT-PCR) [1]: 4/4
GAGE-1-6 expression (RT-PCR) (PWM-activated PBMC): 3/4
MAGE-1 expression (RT-PCR) (PWM-activated PBMC): 4/4
MAGE-2 expression (RT-PCR) (PWM-activated PBMC): 3/4
MAGE-3 expression (RT-PCR) (PWM-activated PBMC): 4/4
MAGE-4 expression (RT-PCR) (PWM-activated PBMC): 3/4
NY-ESO-1 expression (RT-PCR) (PWM-activated PBMC): 4/4
SSX-2 expression (RT-PCR) (PWM-activated PBMC): 3/4
GAGE-1-6 expression (RT-PCR) (PHA-activated PBMC): 4/4
MAGE-1 expression (RT-PCR) (PHA-activated PBMC): 12/12
MAGE-2 expression (RT-PCR) (PHA-activated PBMC): 3/3
MAGE-3 expression (RT-PCR) (PHA-activated PBMC): 12/12
MAGE-4 expression (RT-PCR) (PHA-activated PBMC): 4/4
NY-ESO-1 expression (RT-PCR) (PHA-activated PBMC): 6/6
SSX-2 expression (RT-PCR) (PHA-activated PBMC): 6/6
GAGE-1-6 expression (RT-PCR) [2]: 4/4
MAGE-1 expression (RT-PCR) [2]: 4/4
MAGE-2 expression (RT-PCR) [2]: 4/4
MAGE-3 expression (RT-PCR) [2]: 4/4
MAGE-4 expression (RT-PCR) [2]: 4/4
NY-ESO-1 expression (RT-PCR) [2]: 4/4
SSX-2 expression (RT-PCR) [2]: 4/4
GAGE-1-6 expression (RT-PCR) (PHA+PWM-activated PBMC): 7/7
MAGE-1 expression (RT-PCR) (PHA+PWM-activated PBMC): 7/7
MAGE-2 expression (RT-PCR) (PHA+PWM-activated PBMC): 7/7
MAGE-3 expression (RT-PCR) (PHA+PWM-activated PBMC): 7/7
MAGE-4 expression (RT-PCR) (PHA+PWM-activated PBMC): 7/7
NY-ESO-1 expression (RT-PCR) (PHA+PWM-activated PBMC): 7/7
SSX-2 expression (RT-PCR) (PHA+PWM-activated PBMC): 7/7
induction of MAGE 1, 2, 3 and 6 [3]: induction of investigated CTA in selected samples tested
GAGE-1-6 expression (RT-PCR) [4]: 14/14
MAGE-1 expression (RT-PCR) [4]: 10/10
MAGE-2 expression (RT-PCR) [4]: 9/10
MAGE-3 expression (RT-PCR) [4]: 10/11
MAGE-4 expression (RT-PCR) [4]: 11/11
NY-ESO-1 expression (RT-PCR) [4]: 14/14
SSX-2 expression (RT-PCR) [4]: 13/14
